Experimental data: PMC7439413 (Science Advances, 2020)
Values belong to the compound of their own block, whether it stands above or below them.

Columns and labels:
[1] = target: GRwt LBD-ligand complex / PRGC1 peptide (Homo sapiens, UniProt P04150); assay: SPR: binding of GRwt-ligand complexes to immobilized PRGC1 peptide; details: both GR constructs (GRwt and GRF602S), irrespective of ligand
[2] = tested on: GRwt LBD-ligand complex / TIF2 peptide; assay: SPR: binding of GRwt-ligand complexes to immobilized TIF2 peptide; design: species or system human; details: stated for both TIF2 and PRGC1
human GR = target: T1, human GR (Homo sapiens, UniProt P04150); assay: GR reporter gene assay; format: cell-based; details: transactivation reporter gene assay, comparison among steroid ligands
T1 sequence (P04150 1-777): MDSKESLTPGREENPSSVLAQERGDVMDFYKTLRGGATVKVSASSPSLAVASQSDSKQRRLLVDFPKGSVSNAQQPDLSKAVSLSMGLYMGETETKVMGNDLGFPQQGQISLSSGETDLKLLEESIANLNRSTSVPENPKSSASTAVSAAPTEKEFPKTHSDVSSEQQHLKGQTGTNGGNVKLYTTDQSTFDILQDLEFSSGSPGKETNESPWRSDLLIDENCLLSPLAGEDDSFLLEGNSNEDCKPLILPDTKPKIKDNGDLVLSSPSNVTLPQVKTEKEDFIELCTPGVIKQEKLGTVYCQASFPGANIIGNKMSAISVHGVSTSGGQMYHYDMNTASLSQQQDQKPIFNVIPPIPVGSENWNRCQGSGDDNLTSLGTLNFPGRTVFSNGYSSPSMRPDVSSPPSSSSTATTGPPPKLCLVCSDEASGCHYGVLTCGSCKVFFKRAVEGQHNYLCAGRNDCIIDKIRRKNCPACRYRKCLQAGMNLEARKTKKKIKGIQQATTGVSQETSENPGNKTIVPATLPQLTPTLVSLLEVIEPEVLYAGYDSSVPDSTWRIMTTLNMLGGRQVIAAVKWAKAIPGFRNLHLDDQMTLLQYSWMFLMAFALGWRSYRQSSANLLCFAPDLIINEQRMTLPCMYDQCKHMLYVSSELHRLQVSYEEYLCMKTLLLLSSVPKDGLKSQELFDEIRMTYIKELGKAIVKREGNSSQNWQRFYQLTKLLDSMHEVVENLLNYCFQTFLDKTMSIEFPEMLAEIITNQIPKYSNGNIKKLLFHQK

GRwt-ligand-TIF2 complex = assay: CPMG relaxation dispersion NMR, GRwt-ligand-TIF2; design: species or system human; details: M752 13C CPMG, semiquantitative interpretation, 298 K
[3] = tested on: GRF602S-ligand-TIF2 complex; assay: CPMG relaxation dispersion NMR, GRF602S-ligand-TIF2; design: species or system human; details: GRF602S-dex-TIF2; 13C CPMG, 14.1 and 18.8 T, 298 K
[4] = tested on: GRwt-ligand-PRGC1 complex; assay: CPMG relaxation dispersion NMR, GRwt-ligand-PRGC1; design: species or system human; details: GRwt-dex-PRGC1; 13C CPMG, 18.8 T, 298 K

affinity of GR constructs for coregulator in words [1]: higher affinity for PRGC1 than for TIF2
Compound: PPQEAEEPSLLKKLLLAPANT [PRGC1]

Compound: C[C@]12C=CC(=O)C=C1CC[C@@H]1[C@@H]2[C@@H](O)C[C@@]2(C)[C@H]1C[C@H]1O[C@@H](C3CCCCC3)O[C@]12C(=O)CO [dibC, desisobutyryl-ciclesonide]
coregulator-binding affinity rank of GRwt-ligand complex in words [2]: highest affinity for coregulator peptides
Agonist potency/efficacy in words (human GR): partial agonist, dibC binds GR with high potency
population ratio of helix 12 conformations, pm/pM (GRwt-ligand-TIF2 complex): 0.1

Compound: C[C@@H]1C[C@H]2[C@@H]3CCC4=CC(=O)C=C[C@]4(C)[C@@]3(F)[C@@H](O)C[C@]2(C)[C@@]1(O)C(=O)CO [dex, dexamethasone]
M565 relaxation dispersion in words [3]: shows relaxation dispersion in the GRF602S-dex-TIF2 complex, albeit of much lower amplitude
M752 relaxation dispersion in words [3]: marked relaxation dispersion profile
M565 relaxation dispersion in words [4]: does not show any dispersion

coregulator-binding affinity rank of GRwt-ligand complex in words [2]: weakest affinity in both cases
Compound: C[C@]12CCC(=O)C=C1CC[C@@H]1[C@@H]2[C@@H](O)C[C@@]2(C)[C@H]1CC[C@]2(O)C(=O)CO [cortisol]
